Experimental data reported in patent publication US20260109729A1, “RUTHENIUM COMPLEXES FOR INHIBITION OF GALECTINS, METHOD OF THEIR PREPARATION, AND USE THEREOF” (priority 2023, published 2026).
Like-named read-outs stand apart in the source and are kept apart here.

What was measured:
MDA-MB-231 = experiment: MTT cytotoxicity assay, MDA-MB-231; type: cell-based, human; settings: breast carcinoma, 24-72 hours incubation
Method: (§1) This assay is based on the reduction of the yellow soluble 3-[4,5-dimethylthiazol-2-yl]-2,5-diphenyl tetrazolium bromide (MTT) to insoluble formazan (blue star-shaped crystals). The reaction takes place on the mitochondrial membrane of living cells. Subsequently, the formazan is dissolved by adding a strong detergent (dimethyl sulfoxide, DMSO), and the color is evaluated spectrophotometrically at a wavelength of 570-595 nm.
(§2) Human cell lines derived from ovarian carcinoma (A2780, SK-OV-3), breast carcinoma (MDA-MB-231, MCF-7), and non-tumor epithelial line MCF-10A were used for the cytotoxicity test. Additionally, a cell line derived from embryonic kidney cells HEK293 was used as a control. A2780 cells were cultured in RPMI 1640 medium (Sigma-Aldrich) containing 10% fetal bovine serum (Biochrom AG), 2 mM L-glutamine (Gibco), and 100 U/mL penicillin/streptomycin (Biosera). SK-OV-3 cells were cultured in McCoy's medium (Sigma-Aldrich) containing 10% fetal bovine serum (Biochrom AG) and 100 U/mL penicillin/streptomycin (Biosera). […] After dissolving the blue crystals, the absorbance was measured in the wells of the plate on an ELISA Reader (Multidetection reader Infinititte M1000 PRO (Tecan Group Ltd, CH)) at a wavelength of 570-595 nm. Evaluation of IC50 as the inflection point of the curve of measured absorbance values using the GraphPad Prism software (version 10.0.2, GraphPad, USA).

A2780 = experiment: MTT cytotoxicity assay, A2780; type: cell-based, human; settings: ovarian carcinoma, 24-72 hours incubation
Method: as §1, §2

MCF-10A = experiment: MTT cytotoxicity assay, MCF-10A; type: cell-based, human; settings: non-tumor epithelial line, 24-72 hours incubation
Method: as §1, §2

MCF-7 = experiment: MTT cytotoxicity assay, MCF-7; type: cell-based, human; settings: breast carcinoma, 24-72 hours incubation
Method: as §1, §2

SK-OV-3 = experiment: MTT cytotoxicity assay, SK-OV-3; type: cell-based, human; settings: ovarian carcinoma, 24-72 hours incubation
Method: as §1, §2

HEK-293 = experiment: MTT cytotoxicity assay, HEK-293; type: cell-based, human; settings: embryonic kidney control cell line, 24-72 hours incubation
Method: as §1, §2

human galectin-3 = molecular target: T1, human galectin-3 (Homo sapiens, UniProt P17931); experiment: Competitive ELISA with immobilized asialofetuin, galectin 3; type: binding; settings: His6-GST-Gal-3, average and standard deviation, at least 3 measurements, read-out: IC50 against human galectin-3
T1 construct: made in house; host or cells: E. coli BL21 RILP
Method: (§3) An immobilized competitive ligand, asialofetuin (ASF), a glycoprotein terminated with LacNAc residues interacting with galectins, was used. Wells of microtiter plates (96-well BRAND plates-F-pureGrade, BRAND, Germany) were coated with ASF ([…] in 0.1M CO3^2−/HCO3^− buffer pH 9-9.8; 50 μL per well) and incubated overnight in a humid chamber at […]. Subsequently, wells were washed with 1×200 μL PBS (137 mM NaCl, 2.7 mM KCl, 8 mM Na2HPO4, and 2 mM KH2PO4, pH 7.4). PBS-Tween washes were performed 3×5 min following each subsequent step. The wells were blocked with 3% BSA in PBS (200 μL per well) and incubated for 1 hour at room temperature. Increasing concentrations of inhibitors in PBS buffer were mixed with His6-GST-Gal-3 or His6-GST-Gal-1 (target concentration 5 or 10 μM) and incubated in wells with ASF for 1 hour. […] The signal intensity was measured spectrophotometrically using the Multidetection reader Infinititte M1000 PRO (Tecan Group Ltd, CH) at 450 nm and corresponds to the amount of bound galectin. The respective inhibitory constant (IC50) was calculated from nonlinear regression (dose-response inhibition slope) of sigmoidal curves using GraphPad Prism software (version 10.0.2, GraphPad, USA).

human galectin-1 [1] = molecular target: T2, human galectin-1 (Homo sapiens, UniProt P09382); experiment: Fluorescence anisotropy competitive inhibition assay, galectin 1; type: binding; design: His6-GST (N, cleaved yes); made in house; host or cells: E. coli BL21 RILP; settings: for Ki: Ki calculated from IC50 with online calculator, read-out: Ki against human galectin-1; for Ki / IC50: average and standard deviation; for IC50: protein 500 nM, probe 100 nM, at least three measurements, read-out: IC50 against human galectin-1 under measured condition; for affinity to galectin-1 compared with the fluorescent probe: exact Ki not determinable, given as possible range
Method: Analytical Biochemistry 2004, 334 (1), 36-47, page 39, paragraph “Fluorescence Polarization”. As a competitive fluorescent probe, the compound 3,3′-dideoxy-3-[4-(fluorescein-5-yl-carbonylamino-methyl)-1H-1,2,3-triazol-1-yl]-3′-[4-(3-fluorophenyl)-1H-1,2,3-triazol-1-yl]-1,1′-sulfanediyl-di-β-D-galactopyranoside was used in the measurements. Fluorescence anisotropy was measured using a Tecan Spark multimode microplate reader equipped with fluorescence polarization filters and black polystyrene round-bottomed microtiter plates (Corning®, 384 wells) in samples with a final volume of […]. The samples were incubated in the dark for 30 minutes before measurement.
The Kd values were obtained using nonlinear regression performed by GraphPad Prism software (version 10.0.2, GraphPad, USA) for direct ligand-protein interaction using the formula: A=A0+(Amax−A0)×([G]/(Kd+[G])), where A0 is the anisotropy of the probe in the absence of galectin, Amax is the maximum achieved anisotropy of the probe with increasing galectin concentration, [G] is the total galectin concentration in a measured sample, and A is the measured anisotropy of the measured sample. […] Raw anisotropy data from the reader were plotted against concentration using GraphPad Prism software (version 10.0.2, GraphPad, USA) and nonlinear fitting “[Inhibitor]vs. response—Variable slope (four parameters)” analysis was used to calculate the IC50 values (half-maximal inhibitory concentration) for each titration. The IC50 values from each titration experiment were then used to calculate the inhibition constant Ki using an online calculator (http://websites.umich.edu/-shaomengwanglab/software/calc_ki/index.html). The used model is described in the following publication: Development and optimization of a binding assay for the XIAP BIR3 domain using fluorescence polarization, Analytical Biochemistry 2004, 332 (2), 261-273.

human galectin-1 [2] = molecular target: T2, human galectin-1; settings: read-out: IC50 against human galectin-1; competitive ELISA, immobilized asialofetuin, His6-GST-Gal-1; average and standard deviation, at least 3 measurements
Method: as §3

human galectin-3-CRD = molecular target: T3, human galectin-3-CRD (Homo sapiens, UniProt P17931); experiment: Fluorescence anisotropy competitive inhibition assay, galectin 3; type: binding; settings: average and standard deviation; for Ki: Ki calculated from IC50 with online calculator, read-out: Ki against human galectin 3-CRD; for IC50: protein 50 nM, probe 5 nM, at least three measurements, read-out: IC50 against human galectin-3-CRD under measured condition
T3 construct: human galectin-3-CRD; fused on or other part: N-terminal His6-GST tag, cleaved off by TEV protease before the fluorescence anisotropy test
Method: As a competitive fluorescent probe, the compound 3,3′-dideoxy-3-[4-(fluorescein-5-yl-carbonylamino-methyl)-1H-1,2,3-triazol-1-yl]-3′-[4-(3-fluorophenyl)-1H-1,2,3-triazol-1-yl]-1,1′-sulfanediyl-di-β-D-galactopyranoside was used in the measurements. Fluorescence anisotropy was measured using a Tecan Spark multimode microplate reader equipped with fluorescence polarization filters and black polystyrene round-bottomed microtiter plates (Corning®, 384 wells) in samples with a final volume of […]. The samples were incubated in the dark for 30 minutes before measurement.
The Kd values were obtained using nonlinear regression performed by GraphPad Prism software (version 10.0.2, GraphPad, USA) for direct ligand-protein interaction using the formula: A=A0+(Amax−A0)×([G]/(Kd+[G])), where A0 is the anisotropy of the probe in the absence of galectin, Amax is the maximum achieved anisotropy of the probe with increasing galectin concentration, [G] is the total galectin concentration in a measured sample, and A is the measured anisotropy of the measured sample. […] Raw anisotropy data from the reader were plotted against concentration using GraphPad Prism software (version 10.0.2, GraphPad, USA) and nonlinear fitting “[Inhibitor]vs. response—Variable slope (four parameters)” analysis was used to calculate the IC50 values (half-maximal inhibitory concentration) for each titration. The IC50 values from each titration experiment were then used to calculate the inhibition constant Ki using an online calculator (http://websites.umich.edu/-shaomengwanglab/software/calc_ki/index.html).

T3 sequence (P17931 114-250 limits assumed): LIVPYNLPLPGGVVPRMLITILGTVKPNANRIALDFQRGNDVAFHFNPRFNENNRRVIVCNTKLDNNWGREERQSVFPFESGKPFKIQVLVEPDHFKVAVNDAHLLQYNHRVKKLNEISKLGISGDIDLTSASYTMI
T2 sequence (P09382 whole entry): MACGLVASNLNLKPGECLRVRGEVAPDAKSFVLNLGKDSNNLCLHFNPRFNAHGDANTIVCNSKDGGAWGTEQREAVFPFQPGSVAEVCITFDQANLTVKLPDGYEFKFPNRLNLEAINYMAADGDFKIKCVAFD
T1 sequence (P17931 whole entry): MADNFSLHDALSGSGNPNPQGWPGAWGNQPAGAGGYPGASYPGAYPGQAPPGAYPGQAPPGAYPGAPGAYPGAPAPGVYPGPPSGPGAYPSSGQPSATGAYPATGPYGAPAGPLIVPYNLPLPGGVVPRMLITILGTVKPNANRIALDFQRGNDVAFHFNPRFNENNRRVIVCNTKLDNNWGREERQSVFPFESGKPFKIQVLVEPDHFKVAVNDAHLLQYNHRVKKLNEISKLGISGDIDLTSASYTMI

Row | Substance | IC50 (MDA-MB-231) | IC50 (A2780) | IC50 (MCF-10A) | IC50 (MCF-7) | IC50 (SK-OV-3) | IC50 (HEK-293) | IC50 (human galectin-3) | Ki (human galectin-1 [1]) | IC50 (human galectin-1 [1]) | IC50 (human galectin-1 [2]) | Ki (human galectin-3-CRD) | IC50 (human galectin-3-CRD) | affinity to galectin-1 compared with the fluorescent probe (human galectin-1 [1])
1 | Ruthenium Complex with p-Cymene and Cl Ligands and Cl^− Counterions [Compound 4] | > 200 µM | > 200 µM | > 200 µM | > 200 µM | > 200 µM | 158 ± 42 µM | 87.2 ± 4.4 µM | 0.018 ± 0.011 µM | 0.328 ± 0.018 µM | 0.026 ± 0.004 µM | 21.2 ± 2.7 µM | 100 ± 12 µM | 
2 | Ruthenium Complex with p-Cymene and I Ligands and PF6^− Counterions [Compound 10] |  |  |  |  |  |  |  | 0.023 µM | 0.347 ± 0.013 µM |  | 15.6 ± 1.8 µM | 73.5 ± 8.1 µM | 
3 | Ruthenium Complex with p-Cymene and Cl Ligands and PF6^− Counterions [Compound 6] | 141 ± 8 µM |  |  |  | > 200 µM | 174 ± 28 µM | 104 ± 38 µM | < 0.005 µM | 0.231 ± 0.017 µM |  | 15.2 ± 0.2 µM | 71.7 ± 0.84 µM | significantly better affinity to galectin-1 than used fluorescent probe
4 | Ruthenium Complex with p-Cymene and I Ligands and I^− Counterions [Compound 9] |  |  |  |  |  |  |  | 0.037 ± 0.009 µM | 0.37 ± 0.016 µM |  | 19 ± 3.3 µM | 89.8 ± 16 µM | 
5 | Ruthenium Complex with p-Cymene and Cl Ligands and BF4^− Counterions [Compound 5] |  |  |  |  |  |  |  | < 0.005 µM | 0.187 ± 0.004 µM |  | 10.7 ± 1.9 µM | 50.7 ± 9 µM | significantly better affinity to galectin-1 than used fluorescent probe
6 | Ruthenium Complex with Hexamethylbenzene and Cl Ligands and PF6^− Counterions [Compound 8] |  |  |  |  |  |  |  | 0.114 ± 0.011 µM | 0.498 ± 0.026 µM |  | 43.4 ± 13 µM | 205 ± 63 µM | 
7 | Ruthenium Complex with Benzene and Cl Ligands and PF6^− Counterions [Compound 7] |  |  |  |  |  |  |  | < 0.005 µM | 0.307 ± 0.033 µM |  | 3.54 ± 0.32 µM | 16.8 ± 1.5 µM | significantly better affinity to galectin-1 than used fluorescent probe
